Assay results taken from PMC9356039, “Multifunctional synthetic nano-chaperone for peptide folding and intracellular delivery” (Nature Communications, 2022).
One block for each compound: values may come before it.

What was measured:
[1] = CD spectroscopy, α-helicity by CONTIN-LL; assay type: physicochemical; settings: for helix %: CONTINLL from CD spectra, Avg of replicates Ⅰ-Ⅲ; for α-Helicity, helix % avg: CD spectra, CONTINLL, summary table, mean of n = 3
Description: CD spectra were measured using a J-810 spectropolarimeter (JASCO, Japan). Spectra were recorded from 250 nm to 190 nm wavelength using a 1 cm path-length cuvette. Scans were repeated five times and averaged. Molar ellipticity was calculated per amino acid residue. The concentrations of SNCP and p53pep were 0.2 mg/mL and 20 μM, respectively. All sample suspensions were incubated at least for 2 days at room temperature before CD measurement. To perform temperature-dependent CD experiments, the spectra were recorded at 10 °C interval over a temperature range of 25 to 75 °C, with 30 min incubation time to reach equilibrium at each temperature. The α-helicity of peptides was calculated by using the CONTIN-LL algorithms provided from the DICHROWEB server.

[2] = target: T1, MDM2_1-118 (hMDM2 protein) (Homo sapiens, UniProt Q00987); experiment: Fluorescence polarization binding affinity; settings: peptide 50 nM, PBS pH 7.4, 0.01% Tween20, 10 mM DTT, 2% DMSO, room temperature, N = 3, mean ± SD
T1 construct: purchased SignalChem (Canada)
Description: Each of p53pep and st-p53pep (50 nM) were incubated with MDM2_1-118 with various concentrations in binding assay buffer (PBS pH 7.4 with 0.01% Tween20, 10 mM DTT, 2% DMSO) at room temperature. Binding affinity was measured by fluorescence polarization on a Biotek Synergy Neo2 multi-mode microplate reader. Kd values were determined by nonlinear regression analysis.

HepG2 cells = experiment: CCK-8 cell viability; assay type: cell-based, human; settings: 24 h, 50
Description: Human liver cancer cell line HepG2 were grown in DMEM containing 10% FBS and 1% penicillin/streptomycin at 37 °C in a humidified atmosphere of 5% CO2. HepG2 cells (1.2 × 10^5 cells/well) were seeded in a 4-well glass plate for 24 h. Then, SNCPs@st-p53pep (0.02 mg/mL) and st-p53pep alone (2 μM) were added to each well in a serum-free medium for 4 h. After incubation, the cells were carefully rinsed with PBS, and the medium was replaced with a serum-containing fresh medium. After the nucleus was stained with Hoechst 33342 staining kit by manufacturer’s protocol, bright field and fluorescence images were obtained by using a DeltaVision Elite Microscopy System (GE Healthcare, USA). To observe the distribution of SNCP8 and st-p53pep in cells, TAMRA-labeled SNCP8@FAM-labeled st-p53pep (0.25 mg/mL) was treated in the same manner instead of SNCP8@st-p53pep. And then, the Mander’s overlap coefficient (MOC) was calculated in the Image J program (ver. 1.52a) via the JACoP plugin to identify co-localization between fluorescence signals over time. […] The cell viability was determined using cell counting kit-8 (CCK-8) assay by monitoring absorbance at 450 and 670 nm wavelength measured using a microplate reader (Molecular Devices, Inc., USA). The EC50 values of SNCPs@st-p53pep were determined by the logistic curve-fitting method with Origin (OriginLab, USA).

proteinase K [3] = target: proteinase K (Parengyodontium album, UniProt P06873); experiment: in vitro; assay type: in vitro ADME
Description: (§1) To investigate whether SNCP8@st-p53pep could effectively suppress tumor growth in vivo, we evaluated the anti-tumor effect of SNCP8@st-p53pep using human liver cancer (HepG2) xenograft bearing mouse model. Mice were treated with SNCP8@st-p53pep and controls by intratumoral injection every three days and tumor volume changes were monitored for 14 days. […] Next, we monitored distribution of TAMRA-SNCP8 (red), FAM-st-p53pep (green), and TAMRA-SNCP8@FAM-st-p53pep in the tumor-bearing mouse overtime after intratumoral injection. As shown in Fig. 5b and Supplementary Fig. 20, green fluorescence signal in the tumor treated with TAMRA-SNCP8@FAM-st-p53pep slowly diminished during 72 h, while signal in tumor treated with FAM-st-p53pep alone quickly disappeared within 24 h. […] To compare the lifetime of st-p53pep in tumor more precisely, we calculated the half-life (t1/2) of green fluorescence decay for each sample by analyzing region of interest (ROI) on the basis of whole-body fluorescence image (Fig. 5c).
(§2) Supplementary Figure 19. The proteolytic degradation of p53pep. Semi-quantitative analysis of protease-mediated degradation of p53pep by using the matrix-assisted laser desorption ionization time-of-flight mass spectrometry ( MALDI-TOF MS).
(§3) (a) Mass spectrum of p53pep without SNCP8 (left) and with SNCP8 (right) over 12 h.
(§4) The cumulative remaining p53pep in short (b) and long (c) periods in different conditions: p53pep (circle) and SNCP8@p53pep (square). Rapid degradation of free p53pep within 1 min is observed while the degradation of p53pep inside the SNCP8 […]
(§5) proteinase K (N = 3, biologically independent samples; mean ± SD).
(§6) (1 picture or pasted object on this page, not shown here)

proteinase K [4] = experiment: in vitro; assay type: in vitro ADME; settings: isolated enzyme proteinase k
Description: as §1, §2, §3, §4, §5, §6

[5] = Water solubility (in words); assay type: physicochemical
[6] = target: stapled p53 peptide prepared by click reaction (st-p53pep); experiment: fluorescence polarisation; 50 nM FAM-labelled peptide incubated with MDM2(1-118) at various concentrations; PBS pH 7.4 with 0.01% Tween20, 10 mM DTT, 2% DMSO; room temperature; Kd by nonlinear regression
[7] = target: synthetic p53 peptide (p53pep); experiment: as above
[8] = target: MDM2(1-118), a part of the target protein possessing the p53pep binding site (UniProt Q00987)
Sequence of MDM2(1-118), a part of the target protein possessing the p53pep binding site (UniProt Q00987) (Q00987 1-118): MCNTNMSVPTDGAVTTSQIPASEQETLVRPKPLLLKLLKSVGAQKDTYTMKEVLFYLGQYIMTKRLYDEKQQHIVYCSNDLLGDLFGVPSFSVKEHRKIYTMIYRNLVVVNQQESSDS

Sequence of MDM2(1-118), a part of the target protein possessing the p53pep binding site (from UniProt Q00987 1-118) (domain or fragment) (Q00987 1-118): as above
Sequence of proteinase K (Parengyodontium album, UniProt P06873) (P06873 106-384, species assumed): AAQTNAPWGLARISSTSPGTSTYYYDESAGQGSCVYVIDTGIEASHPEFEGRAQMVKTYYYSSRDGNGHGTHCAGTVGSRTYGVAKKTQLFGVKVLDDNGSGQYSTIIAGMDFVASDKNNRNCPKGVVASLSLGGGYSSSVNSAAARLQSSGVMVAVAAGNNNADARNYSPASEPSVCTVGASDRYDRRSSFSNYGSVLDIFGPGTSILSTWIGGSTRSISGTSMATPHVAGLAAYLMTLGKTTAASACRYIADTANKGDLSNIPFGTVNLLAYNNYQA
T1 sequence (Q00987 1-118): as the sequence (Q00987 1-118) above

- helix % ([1]; 25C): 39.4%
- α-Helicity, helix % avg ([1]; 25 ℃): 39.4%
- helix % ([1]; 35C): 35.9%
- α-Helicity, helix % avg ([1]; 35 ℃): 35.9%
- helix % ([1]; 45C): 37.5%
- α-Helicity, helix % avg ([1]; 45 ℃): 37.5%
- helix % ([1]; 55C): 36.5667%
- helix % ([1]; 65C): 34.0667%
- helix % ([1]; 75C): 35.9667%
- Kd [2]: 80.6 ± 2.33 nM
- time of degradation by proteinase K (proteinase K [3]): ≤ 1 min
- remaining at 1 min (proteinase K [4]): 16.9%
- remaining at 0.05 h (proteinase K [4]): 8.39%
- remaining at 5 min (proteinase K [4]): 5.56%
- remaining at 10 min (proteinase K [4]): 3.21%
- remaining at 0.5 h (proteinase K [4]): 6.68%
- remaining at 1 h (proteinase K [4]): 9.04%
- remaining at 12 h (proteinase K [4]): 3.85%
- solubility in water (in words) [5]: insoluble in water
Compound: C#CCCC(=O)NCCCC[C@@H](NC(=O)[C@H](Cc1ccccc1)NC(=O)[C@@H](NC(=O)[C@H](CCC(N)=O)NC(=O)[C@H](CCC(N)=O)NC(=O)[C@H](CO)NC(=O)[C@H](CCC(N)=O)NC(=O)CNC(=O)CNC(=O)c1ccc2c(c1)C(=O)OC21c2ccc(O)cc2Oc2cc(O)ccc21)[C@@H](C)O)C(=O)N[C@@H](CC(N)=O)C(=O)N[C@@H](CC(C)C)C(=O)N[C@@H](Cc1c[nH]c2ccccc12)C(=O)N[C@@H](CCCNC(=N)N)C(=O)N[C@@H](CC(C)C)C(=O)N[C@@H](CC(C)C)C(=O)N[C@@H](CCCN=[N+]=[N-])C(=O)N[C@@H](CCC(N)=O)C(=O)N[C@@H](CC(N)=O)C(N)=O [p53pep]
- cell viability at corresponding dose (HepG2 cells): more than 80%

- Kd [6]: 27.7 nM
- Kd [7]: 80.6 nM
Compound: MDM2(1-118), a part of the target protein possessing the p53pep binding site (from UniProt Q00987 1-118) (domain or fragment)

Compound: synthetic p53 peptide (p53pep)
- viability of HepG2 cells (CCK-8) at the corresponding dose of SNCP8@p53pep (unstapled peptide delivered in SNCP8) [8]: > 80%
